From patent US10202361B2, “Pyridazinones as herbicides” (E I DU PONT DE NEMOURS AND COMPANY, priority 2014, dated 2019)
Where two headings read alike, the source gives them in different places.

Assays:
Assay type in all cases: in vivo
[1] = tested on: ragweed (common ragweed, Ambrosia elatior); experiment: Test C pre-/postemergence greenhouse herbicide test; settings: Ambrosia artemisiifolia, Ragweed, read-out: Plant response rating; for pest or weed control at 31 g/ha: 31 g ai/ha; for pest or weed control at 62 g/ha: 62 g ai/ha; for pest or weed control at 125 g/ha: 125 g ai/ha; for pest or weed control at 250 g/ha: 250 g ai/ha
In short: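 Seeds sown in loam soil–sand blend were treated preemergence; plants at 2 to 18 cm (1- to 4-leaf stage) in peat-based medium were treated postemergence. Test chemicals were formulated in a non-phytotoxic solvent mixture with surfactant. After 13 to 15 d in greenhouse, injury was rated visually versus controls, 0 (no effect) to 100 (complete control).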

[2] = tested on: crabgrass, Large (large crabgrass, Digitaria sanguinalis); experiment: Test A pre-/postemergence greenhouse herbicide test; settings: Digitaria sanguinalis, 240 h, 0 to 100 scale (0 no effect, 100 complete control), approx. 10 d, read-out: Plant response rating, Crabgrass, Large; for pest or weed control at 125 g/ha: 125 g ai/ha; for pest or weed control at 500 g/ha: 500 g ai/ha
In short: (§1)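 Injury was scored visually on a 0 to 100 scale, where 0 meant no effect and 100 complete control, relative to untreated plants after about 10 d in the greenhouse. Preemergence treatment was a directed soil spray on seeded loam–sand; postemergence spray went onto one- to two-leaf plants.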

[3] = tested on: velvetleaf (Abutilon theophrasti); experiment: as above; settings: Abutilon theophrasti, 240 h, 0 to 100 scale (0 no effect, 100 complete control), approx. 10 d, read-out: Plant response rating, Velvetleaf; for pest or weed control at 125 g/ha: 125 g ai/ha; for pest or weed control at 500 g/ha: 500 g ai/ha
In short: as §1

[4] = tested on: corn (Zea mays); experiment: as above; settings: Zea mays, 240 h, 0 to 100 scale (0 no effect, 100 complete control), approx. 10 d; for Corn plant response rating (crop injury, 0 = no effect, 100 = complete kill) at 125 g/ha: 125 g ai/ha; for Corn plant response rating (crop injury, 0 = no effect, 100 = complete kill) at 500 g/ha: 500 g ai/ha
In short: as §1

[5] = tested on: wheat (Triticum aestivum); experiment: as above; settings: Triticum aestivum, 240 h, 0 to 100 scale (0 no effect, 100 complete control), approx. 10 d, read-out: Plant response rating, Wheat; for plant injury at 125 g/ha: 125 g ai/ha; for plant injury at 500 g/ha: 500 g ai/ha
In short: as §1

[6] = tested on: barnyardgrass (Echinochloa crus-galli); experiment: as above; settings: Echinochloa crus-galli, 240 h, 0 to 100 scale (0 no effect, 100 complete control), approx. 10 d, read-out: Plant response rating, Barnyardgrass; for pest or weed control at 125 g/ha: 125 g ai/ha; for pest or weed control at 500 g/ha: 500 g ai/ha
In short: as §1

[7] = tested on: pigweed (Amaranthus retroflexus); experiment: as above; settings: Amaranthus retroflexus, 240 h, 0 to 100 scale (0 no effect, 100 complete control), approx. 10 d, read-out: Plant response rating, Pigweed; for pest or weed control at 125 g/ha: 125 g ai/ha; for pest or weed control at 500 g/ha: 500 g ai/ha
In short: as §1

[8] = tested on: foxtail, giant (giant foxtail, Setaria faberii); experiment: as above; settings: Setaria faberi, 240 h, 0 to 100 scale (0 no effect, 100 complete control), approx. 10 d, read-out: Plant response rating, Foxtail, Giant; for pest or weed control at 125 g/ha: 125 g ai/ha; for pest or weed control at 500 g/ha: 500 g ai/ha
In short: as §1

Row | SMILES | pest or weed control at 31 g/ha ([1]; post-emergence, Postemergence) [%] | pest or weed control at 62 g/ha ([1]; post-emergence, Postemergence) [%] | pest or weed control at 125 g/ha ([1]; post-emergence, Postemergence) [%] | pest or weed control at 31 g/ha ([1]; pre-emergence, Preemergence) [%] | pest or weed control at 62 g/ha ([1]; pre-emergence, Preemergence) [%] | pest or weed control at 125 g/ha ([1]; pre-emergence, Preemergence) [%] | pest or weed control at 250 g/ha ([1]; pre-emergence, Preemergence) [%] | pest or weed control at 125 g/ha ([2]; post-emergence, Postemergence) [%] | pest or weed control at 500 g/ha ([2]; post-emergence, Postemergence) [%] | pest or weed control at 125 g/ha ([2]; pre-emergence, Preemergence) [%] | pest or weed control at 500 g/ha ([2]; pre-emergence, Preemergence) [%] | pest or weed control at 125 g/ha ([3]; post-emergence, Postemergence) [%] | pest or weed control at 500 g/ha ([3]; post-emergence, Postemergence) [%] | pest or weed control at 125 g/ha ([3]; pre-emergence, Preemergence) [%] | pest or weed control at 500 g/ha ([3]; pre-emergence, Preemergence) [%] | Corn plant response rating (crop injury, 0 = no effect, 100 = complete kill) at 125 g/ha ([4]; post-emergence, Postemergence) [%] | Corn plant response rating (crop injury, 0 = no effect, 100 = complete kill) at 500 g/ha ([4]; post-emergence, Postemergence) [%] | Corn plant response rating (crop injury, 0 = no effect, 100 = complete kill) at 125 g/ha ([4]; pre-emergence, Preemergence) [%] | Corn plant response rating (crop injury, 0 = no effect, 100 = complete kill) at 500 g/ha ([4]; pre-emergence, Preemergence) [%] | plant injury at 125 g/ha ([5]; post-emergence, Postemergence) [%] | also measured
1 | Cc1cc(=O)n(-c2ccc(F)cc2)nc1Cc1ccnc(C(F)(F)F)c1 [Compound 1, 2-(4-fluorophenyl)-5-methyl-6-[[2-(trifluoromethyl)-4-pyridinyl]methyl]-3(2H)-pyridazinone] | 30 | 50 | 50 | 25 | 35 | 70 | 100 | 90 | 100 | 100 | 100 | 40 | 100 | 0 | 90 | 90 | 90 | 0 | 90 | 60 | pest or weed control at 250 g/ha ([1]; post-emergence, Postemergence): 60%; plant injury at 500 g/ha ([5]; post-emergence, Postemergence): 90%; plant injury at 125 g/ha ([5]; pre-emergence, Preemergence): 0%; plant injury at 500 g/ha ([5]; pre-emergence, Preemergence): 90%; pest or weed control at 125 g/ha ([6]; post-emergence, Postemergence): 100%; pest or weed control at 500 g/ha ([6]; post-emergence, Postemergence): 100%; pest or weed control at 125 g/ha ([6]; pre-emergence, Preemergence): 100%; pest or weed control at 500 g/ha ([6]; pre-emergence, Preemergence): 100%; pest or weed control at 125 g/ha ([7]; post-emergence, Postemergence): 100%; pest or weed control at 500 g/ha ([7]; post-emergence, Postemergence): 100%; pest or weed control at 125 g/ha ([7]; pre-emergence, Preemergence): 100%; pest or weed control at 500 g/ha ([7]; pre-emergence, Preemergence): 100%; pest or weed control at 125 g/ha ([8]; post-emergence, Postemergence): 90%; pest or weed control at 500 g/ha ([8]; post-emergence, Postemergence): 100%; pest or weed control at 125 g/ha ([8]; pre-emergence, Preemergence): 100%; pest or weed control at 500 g/ha ([8]; pre-emergence, Preemergence): 100%
2 | Cc1cc(=O)n(-c2ccc(C(F)(F)F)cc2)nc1Cc1ccnc(C(F)(F)F)c1 [Compound 2, 5-methyl-2-[4-(trifluoromethyl)phenyl]-6-[[2-(trifluoromethyl)-4-pyridinyl]methyl]-3(2H)-pyridazinone] | 25 | 60 | 60 | 15 | 60 | 60 | 60 | 80 | 100 | 100 | 100 | 50 | 100 | 20 | 50 | 70 | 90 | 30 | 50 | 40 | plant injury at 500 g/ha ([5]; post-emergence, Postemergence): 80%; plant injury at 125 g/ha ([5]; pre-emergence, Preemergence): 0%; plant injury at 500 g/ha ([5]; pre-emergence, Preemergence): 40%; pest or weed control at 125 g/ha ([6]; post-emergence, Postemergence): 80%; pest or weed control at 500 g/ha ([6]; post-emergence, Postemergence): 90%; pest or weed control at 125 g/ha ([6]; pre-emergence, Preemergence): 80%; pest or weed control at 500 g/ha ([6]; pre-emergence, Preemergence): 100%; pest or weed control at 125 g/ha ([7]; post-emergence, Postemergence): 90%; pest or weed control at 500 g/ha ([7]; post-emergence, Postemergence): 100%; pest or weed control at 125 g/ha ([7]; pre-emergence, Preemergence): 100%; pest or weed control at 500 g/ha ([7]; pre-emergence, Preemergence): 100%; pest or weed control at 125 g/ha ([8]; post-emergence, Postemergence): 80%; pest or weed control at 500 g/ha ([8]; post-emergence, Postemergence): 100%; pest or weed control at 125 g/ha ([8]; pre-emergence, Preemergence): 100%; pest or weed control at 500 g/ha ([8]; pre-emergence, Preemergence): 100%
